This test addresses Ubiquitin carboxyl-terminal hydrolase 30 (Homo sapiens) (UniProt Q70CQ3). Briefly: ubiquitin-specific protease 30 DUB inhibitors, concentration-effect, biochemical, validation of primary actives (AID 1645865). Particulars: purified USP30, Ub-rhodamine cleavage, fluorescence, 2 h.

Activity calls are given as the source filed them.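 The calls were made as follows: active = maximal inhibition of the USP30 enzyme reaching 30% or more across the dose series; inactive = the rest.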

Chain of Ubiquitin carboxyl-terminal hydrolase 30 (Homo sapiens) (Q70CQ3 whole entry, looked up): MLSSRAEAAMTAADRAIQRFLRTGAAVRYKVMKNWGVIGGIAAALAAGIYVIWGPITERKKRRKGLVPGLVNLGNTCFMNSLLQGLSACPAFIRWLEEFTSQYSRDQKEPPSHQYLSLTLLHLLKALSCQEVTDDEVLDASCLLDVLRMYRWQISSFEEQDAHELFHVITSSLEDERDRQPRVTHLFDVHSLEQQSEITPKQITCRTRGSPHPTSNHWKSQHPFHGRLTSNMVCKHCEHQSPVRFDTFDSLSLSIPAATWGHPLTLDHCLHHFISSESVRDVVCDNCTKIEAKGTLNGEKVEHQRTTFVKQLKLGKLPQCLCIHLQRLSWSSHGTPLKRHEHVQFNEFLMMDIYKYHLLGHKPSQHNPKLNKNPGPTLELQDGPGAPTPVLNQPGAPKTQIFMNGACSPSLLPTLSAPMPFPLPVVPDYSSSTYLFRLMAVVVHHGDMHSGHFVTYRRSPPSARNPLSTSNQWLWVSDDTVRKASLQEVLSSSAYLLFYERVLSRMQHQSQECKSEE

What is called IC50 is the concentration that gives 50% inhibition. `CC1(C)CC(n2[nH]c(=O)c3c2NC(=O)CSC3c2ccc(OCc3ccccc3)cc2)CCO1` (stereo unspecified): the IC50 was 12 µM.
In the case of `O=S1(=O)CCN(CC2CCCO2)c2c(Oc3ccccc3)nc(F)c(Cl)c21` (stereo unspecified), the IC50 is > 50 µM (inactive).
In the case of `O=C(CNS(=O)(=O)c1ccc(F)cc1)N1CCCC(c2nnc3ccccn23)C1` (stereo unspecified) it was > 50 µM (inactive).
Take `O=C(Nc1ccc(F)cc1)Nc1ccccc1OCc1cc(=O)n2ccccc2n1`: the IC50 was 3.88 µM.
As for `Cc1ccc2[nH]c(=O)c(CN(Cc3cccnc3)C(=O)c3cccc(Cl)c3)cc2c1`, the IC50 was > 50 µM (inactive).
In the case of `Cc1c(Cl)cccc1NC(=O)Cn1c(=O)c2ccccc2n2nncc12`, the IC50 was > 50 µM (inactive).
Turning to `O=C(Nc1ccc2ccccc2n1)c1ccc(Cl)cc1`, the IC50 was 2.08 µM.
On to `O=C(NC1(O)C(=O)c2ccccc2C1=O)c1ccc(-c2csnn2)cc1`, for which the IC50 was 32.1 µM.
In the case of `O=C(CSc1ccc2nnc(-c3ccccc3)n2n1)N1CCCc2ccccc21` it was 10.7 µM.
In the case of `CC1(C)C[C@@H](O)[C@]2(C)CC[C@]3(C)C(=CCC4[C@@]5(C)CC[C@H](O)[C@](C)(CO)[C@@H]5CC[C@]43C)[C@@H]2C1` (stereo partly specified) it was 3.18 µM.
In the case of `O=C(CCc1nnc2n(Cc3ccc(F)cc3)c(=O)c3ccccc3n12)N1CCN(c2ccccn2)CC1` it was > 50 µM (inactive); in that of `NC(=O)Cn1c(=O)n(Cc2ccc(C(=O)NC3CCCC3)cc2)c(=O)c2ccccc21`, > 50 µM (inactive); in that of `Cc1ccc(C(=O)Nc2cc3c4c(c2)CC(=O)N4CCC3)cc1C`, > 50 µM (inactive).
Regarding `COc1cc2c(cc1OC)C(COc1ccccc1OC)N(C(=O)c1ccc3ccccc3c1)CC2` (stereo unspecified), the IC50 is > 50 µM (inactive).
In the case of `O=S(=O)(Nc1ccc(O)cc1)c1ccc2oc3ccc(S(=O)(=O)Nc4ccc(O)cc4)cc3c2c1` it was 26.5 µM; in that of `O=C(Nc1cccc(Br)c1)c1cc(-c2cccnc2)n[nH]1`, 1.55 µM; in that of `O=C(NCCn1ccc2ccccc21)c1cc2ccccc2oc1=O`, 40.9 µM.
In the case of `CC(C)Cn1cc(OC(=O)c2ccc(F)cc2)c2c1nc(-c1ccc(F)cc1)n1c3ccccc3nc21` it was > 50 µM (inactive).
Take `CC(C(=O)NCc1ccc2c(c1)OCO2)N1CCN(c2ccc(O)cc2)CC1` (stereo unspecified): the IC50 was > 50 µM (inactive).
In the case of `Cc1ccc(-n2c(=O)[nH]c3c(C(N)=O)nc(-c4cccnc4)nc32)cc1` it was 3.37 µM; in that of `Cn1nccc1C(=O)N1CCCCC1c1ncc(Cc2ccc(Cl)cc2)o1` (stereo unspecified), > 50 µM (inactive); in that of `CCOC(=O)c1ccc(NC(=O)C[n+]2cc(-c3ccc(Cl)cc3)n3c2CCC3)cc1`, 38.5 µM.
Take `CC1CCc2c(sc3ncnc(OCc4cccc([N+](=O)[O-])c4)c23)C1` (stereo unspecified): the IC50 was > 50 µM (inactive).
In the case of `COc1ccccc1NC(=O)c1cc(-c2ccccn2)nc2ccccc12` it was 16.5 µM.
In the case of `O=C(Oc1ccc(-c2cnc3ccccc3n2)cc1)c1ccc(F)cc1` it was 18.2 µM; in that of `Cc1nn(-c2cccc(F)c2)c2c1c(C)c(CCC(=O)NCc1ccccn1)c(=O)n2C`, 3.22 µM.
In the case of `Cc1cc(=O)n(C)c2c(O)c3c(cc12)c(C)cc(=O)n3C` it was > 50 µM (inactive).
As to `COC(=O)c1c(C)[nH]c(C(=O)C(C)OC(=O)CCC2CCCC2)c1C` (stereo unspecified), the IC50 is > 50 µM (inactive).
In the case of `COc1ccc2cc1Oc1cc(ccc1OC)C(O)C13SSC4(C(=O)N1C)C(O)C1=COC=CC(OC2=O)C1N4C3=O` (stereo unspecified) it was 0.674 µM; in that of `CC(=O)N1CCc2cc(S(=O)(=O)NCc3ccc(C)cc3)ccc21`, > 50 µM (inactive).
With `CC(C)=CCC/C(C)=C/Cc1c(O)cc2c(c1O)C(=O)OC2`, the IC50 is 1.24 µM.
Regarding `O=C(CCCn1c(=O)[nH]c2cc(Cl)ccc2c1=O)N1CCc2ccccc2C1`, the IC50 is 35.4 µM.
Take `O=C(NCc1ccc(F)cc1)C1CCCN(c2cnc3nccnc3c2)C1` (stereo unspecified): the IC50 is > 50 µM (inactive).
`CSc1ccc(CNCc2c(C(=O)O)n(Cc3ccccc3)c3cc(C)ccc23)cc1`: the IC50 was > 50 µM (inactive).
In the case of `Cc1ccc(C(=O)Nc2nc3n(n2)C(c2ccccc2)CC(=O)N3)cc1` (stereo unspecified) it was 24.4 µM; in that of `COc1cc([C@@H]2c3cc4c(cc3C[C@@H]3COC(=O)[C@H]32)OCO4)cc(OC)c1OC`, 18.7 µM; in that of `O=C1Nc2c(Cl)cc(Cl)cc2C1(O)c1sc(NC2CCCCC2)nc1-c1ccccc1` (stereo unspecified), 31.2 µM.
As for `COc1ccccc1NS(=O)(=O)c1cccc(NC(=O)CCc2nc3ccccc3s2)c1`, the IC50 is 4.01 µM.
In the case of `CC1=C(c2ccc(F)cc2)S(=O)(=O)NC1=NCC(=O)Nc1ccc(F)cc1F` it was 23.4 µM; in that of `CC(C)=CCC/C(C)=C/C[C@]1(O)C(=O)c2cc(O)cc(O)c2C(=O)[C@@]1(Cl)CC=C(C)C`, > 50 µM (inactive).
In the case of `CCC(C)Oc1cccc(C(=O)Nc2ccc(CN3CCOCC3)cc2)c1` (stereo unspecified) it was > 50 µM (inactive); in that of `O=C(Nc1ccc(-c2nnc3n2CCCCC3)cc1)c1ccc2c(c1)OCO2`, > 50 µM (inactive); in that of `O=C(CSc1ncnc2c1sc1cccc(F)c12)N1CCCCCC1`, > 50 µM (inactive).
In the case of `CC(=O)c1cccc(NC(=O)c2ccc(N3CCCCC3)nn2)c1` it was 35.6 µM; in that of `CCN(CC)c1nc(F)c2c(c1F)S(=O)(=O)CCN2Cc1ccccc1`, > 50 µM (inactive); in that of `COc1ccc(-c2nc(SCC(=O)Nc3ccc(Cl)cc3F)n[nH]2)cc1`, > 50 µM (inactive).
On to `COC(=O)COc1ccc(/C=N/NC(=O)c2ccc(CN3CCc4ccccc4C3)cc2)cc1`, for which the IC50 is 26.7 µM.
In the case of `O=C(Nc1ccccc1)c1nc(-c2cn(Cc3ccc(F)cc3)nn2)no1` it was 28.6 µM; in that of `CC1CC(=O)c2c(cc3c(-c4c(O)cc(O)c5c(O)c6c(cc45)OC(C)CC6=O)c(O)cc(O)c3c2O)O1` (stereo unspecified), > 50 µM (inactive).
`CC(c1ccccc1)n1c(-c2ccc(F)cc2)nc2c(c(=O)c3ccccc3n2C)c1=O` (stereo unspecified): the IC50 is 2.06 µM.
As for `O=C(/C=C/C=C/C=C/C1CCCCC1)NC1=C[C@@](O)(/C=C/C=C/C=C/C(=O)NC2=C(O)CCC2=O)[C@@H]2O[C@@H]2C1=O`, the IC50 is > 50 µM (inactive).
Turning to `O=C(Cc1noc2ccccc12)N1CCN(c2ccc([N+](=O)[O-])cc2)CC1`, the IC50 is > 50 µM (inactive).
`Cc1nnc(-c2nnc(NCc3ccc(Cl)cc3)c3ccccc23)o1`: the IC50 is > 50 µM (inactive).
Turning to `Cc1cc(N2CCC(NC(=O)NCc3ccc(F)cc3)C2=O)ccc1F` (stereo unspecified), the IC50 was 7.68 µM.
`Cc1c(C)n(-c2ccccc2)c2ncn(CC(=O)NCCCc3ccccc3)c(=O)c12`: the IC50 is 44.9 µM.
`O=C1c2c(O)cccc2C2(Oc3cccc4cccc(c34)O2)C2OC12` (stereo unspecified): the half-maximal inhibitory concentration (IC50) was 31.8 µM.
In the case of `CCCCN(CC)c1ncnc2c1sc1nc(-c3ccco3)c3c(c12)CC(C)(C)OC3` it was > 50 µM (inactive); in that of `CCOC(=O)c1sc2nc(CC(=O)OC)nc(NCc3ccco3)c2c1C`, > 50 µM (inactive); in that of `COc1ccc(C)cc1NC(=O)COc1ccc2c(c1)OCO2`, > 50 µM (inactive).
In the case of `CC(CCc1ccccc1)NC(=O)Cn1c(=O)c2cccn2c2ccccc21` (stereo unspecified) it was 4.37 µM; in that of `CCOc1ccc(NC(=O)Cn2cc(C(=O)c3ccc(Cl)cc3)c(=O)c3cc(OC)ccc32)cc1`, 0.975 µM.

The values are drawn from PubChem BioAssay AID1645865 (Buhrlage Lab, Dana-Farber Cancer Institute and Novartis …, 2021).
